Test results from patent US20200362305A1, “EFFICIENT INFECTION OF PRIMARY KER[…] HPV16” (Board of Supervisors of Louisiana State University and …, priority 2018, published 2020).

Test system: HPV16
Assay: HPV16 infection of primary keratinocytes by ECM-to-cell transfer, cells grown with or without Y-27632
Format: cell-based, human
Details: primary cells grown in the presence or absence of the Rho kinase inhibitor Y-27632
Experimental: Human embryonic kidney 293TT and HeLa cells were obtained from John Schiller and Daniel DiMaio, respectively. They were cultured in DMEM supplemented with 10% FBS, non-essential amino acids, antibiotics, and L-Glutamax. Spontaneously immortalized human keratinocytes HaCaT cells were purchased from the American Type Culture Collection (ATCC) and grown in low glucose DMEM containing 5% FBS and antibiotics. Human foreskin keratinocytes (HFKs) were derived from neonatal human foreskin epithelia and maintained in E medium containing mouse epidermal growth factor (EGF) and mitomycin-treated mouse 3T3 J2 fibroblasts. Pooled primary epithelial keratinocytes were also purchased from the ATCC (PCS-200-010) and used in some experiments. In early experiments where indicated, the inventors maintained and infected primary keratinocytes in the presence of the Rho kinase inhibitor (ROCK) Y-27632, which was reported to increase their lifespan. However, the ROCK inhibitor was excluded prior and during experiments involving long term culturing of infected primary cells. Stable cell lines containing HPV16 episomes were created by co-transfection of pEGFP-N1-HPV16 containing the HPV16 genome (W12 strain) with an expression vector for Cre recombinase and a Neomycin resistance plasmid. […]

C[C@@H](N)[C@H]1CC[C@H](C(=O)Nc2ccncc2)CC1 [Y-27632]
infection efficiency: no significant difference
